Here are results for one compound from patent publication US20220332742A1, “Naringin-Loaded Metal Organic Frameworks” (Colgate-Palmolive Company, priority 2021, published 2022).

A word on the MIC: it is the lowest concentration found to suppress growth. A higher MIC goes with a need for much substance. One may read the viability as a per cent measure of how many cells are alive, often set against a control. A lower viability goes with a greater loss of cells.

What all share (type): cell-based
For one series, the system named is Bacillus subtilis. The series can be described thus: Antibacterial activity, MIC by micro-dilution method. Particulars: TSB, lowest concentration that completely inhibits growth.
Series [1] is described as follows: EL4 T cell viability, ATP viability assay (ATPLite 1-step Luminescence). Particulars: mouse, EL4 T cells. How it is done: The ability of naringin-loaded MIL-101(Fe) to promote the viability of EL4 T cells is evaluated using the ATP viability assay (Perkin Elmer, ATPLite 1-step Luminescence Assay). EL4 T cells are seeded at 8000 cells/mL in white 96-well plates and incubated with either naringin or naringin-loaded MIL-101(Fe) (Example 1(d)) at the following concentrations: 3.125, 6.25, 12.5, 25, 50, 100, and 200 μg/mL. The ATP kit solution is then added to each well, and a 96-well microplate reader is used to measure total luminescence. Cell viability is calculated as a percentage of the luminescence of the untreated control.

For series [2], the system named is H1299 mouse lung tumor cells. Kind of series: Tumor cell cytotoxicity, ATP viability assay (ATPLite 1-step Luminescence). How it is done:
The ability of naringin-loaded MIL-101(Fe) to kill H1299 […] lung tumor cells is evaluated using the ATP viability assay (Perkin Elmer, ATPLite 1-step Luminescence Assay). H1299 cells are seeded at 5000 cells/mL in white 96-well plates and incubated with either MIL-101(Fe), naringin or naringin-loaded MIL-101(Fe) (Example 1(d) at the following concentrations: 0, 3.125, 25, 50, 100, and 200 μg/mL. The ATP kit solution is then added to each well, and a 96-well microplate reader is used to measure total luminescence. Cell viability is calculated as a percentage of the luminescence of the untreated control. The results are shown in the following table: […]
For orientation: ATP-based viability assays read luminescence as a measure of living cells.

The subject of the next series is TNF-alpha. The series can be described thus: TNF-alpha release from EL4 T cells, ELISA. Particulars: 24 hours. The protocol: (§1) The ability of naringin-loaded MIL-101(Fe) to promote the release of IL-2 and TNF-alpha from EL4 T cells is evaluated. Enzyme-linked immunosorbent assay (ELISA) is performed according to the manufacturer specifications. Briefly, EL-4 T-cells are incubated in 96-well plates at an initial density of 8000 cells/well. The cell cultures are treated with either MIL-101(Fe), naringin or naringin-loaded MIL-101(Fe) (Example 1(d)) at the following concentrations in PBS: 0, 100, and 200 μg/mL. The plates are incubated for 24 hours at 37° C. in 5% CO2 atmosphere. The solutions are then transferred to a V-shaped 96 well plate and centrifuged at 500 g for 5 minutes. The supernatant solutions are then collected and the recommend ELISA protocol is performed. Absorbance at 450 and 540 nm is measured using a 96-well plate reader, and the results are compared to cytokine standard solutions.
(ELISA stands for enzyme-linked immunosorbent assay.)

The next series deals with IL-2. Kind of series: IL-2 release from EL4 T cells, ELISA. Particulars: 24 hours. The protocol:
as §1

[3] abbreviates: 3.125 µg/mL of agent, % of untreated control.

The structures appear in SMILES notation. ≈ marks a conversion by molar mass, not a printed value.

Description for Bacillus subtilis: The antibacterial activity of the prepared MOF complexes is determined against Bacillus subtilis, by calculating minimal inhibitory concentration (MIC) using the micro-dilution method. Briefly, test samples are diluted with TSB solution to 2 mg/mL, and then further serial dilutions are prepared in TSB. Bacterial cultures are incubated in TSB for 16 hours, then 100 microliter suspensions are transferred to 4 mL of fresh medium and incubated for another 6 hours in order to reach mid-log phase stage. Then, the bacteria are diluted to provide 10^6 colony-forming units per mL (CFU/mL) based on OD600 measurement. […] The tested products are the naringin-loaded MOF prepared from 0.5 mg/ml naringin in ethanol, 0.5 mg/mL naringin in 1:4 ethanol/water solution, and 1 mg/mL naringin in 1:2.2 ethanol/water solution.

The compound `C[C@@H]1O[C@@H](O[C@H]2[C@H](Oc3cc(O)c4c(c3)O[C@H](c3ccc(O)cc3)CC4=O)O[C@H](CO)[C@@H](O)[C@@H]2O)[C@H](O)[C@H](O)[C@H]1O` [Naringin] registered an MIC against Bacillus subtilis of 5000 µg/mL (≈ 8.61 mM). For the same compound, the viability at 3.125 µg/mL in series [1] (setting [3]) worked out at 77%. Moreover, in series [1] (6.25 µg/mL of agent), the viability at 6.25 µg/mL was found to be 75.8%. For the same compound, the viability at 12.5 µg/mL in series [1] (12.5 µg/mL of agent) worked out at 72.1%. Further, in series [1] (25 µg/mL of agent), the viability at 25 µg/mL amounted to 67%. In series [1] (50 µg/mL of agent), this compound displayed a viability at 50 µg/mL of 74.9%. Also, the viability at 100 µg/mL in series [1] (100 µg/mL of agent) was 80.3%. For the same compound, the viability at 200 µg/mL in series [1] (200 µg/mL of agent) is 84.7%. Moreover, the “Cell viability (%)” value in series [2] (setting [3]) is recorded as 85.97%; in series [2] (25 µg/mL of agent), 73.26%; in series [2] (50 µg/mL of agent), 80.15%; in series [2] (100 µg/mL of agent), 87.10%; in series [2] (200 µg/mL of agent), 83.23%. Besides, the TNF-alpha concentration in the series with TNF-alpha (100 µg/mL of agent) came to 10.64 pg/mL; with TNF-alpha (200 µg/mL of agent), 9.92 pg/mL. The IL-2 concentration with IL-2 (100 µg/mL of agent) turned out to be 15.22 pg/mL; with IL-2 (200 µg/mL of agent) it was 16.49 pg/mL.
